SMILES strings stand for the structures.

From ChEMBL document CHEMBL3352391, “Trichormamides A and B with Antiproliferative Activity from the Cultured Freshwater Cyanobacterium Trichormus sp. UIC 10339” (J Nat Prod, 2014) come the findings set out here.

Assay [1] deals with MDA-MB-435. Nature of the assay: Antiproliferative activity against human MDA-MB-435 cells after 72 hrs by MTS assay. It counts as functional, cell-based. To be noted: MDA-MB-435, 72 h. (Tetrazolium dyes change colour on reduction, which living cells bring about.)
In assay [2] the test system is HT-29. Nature of the assay: Antiproliferative activity against human HT-29 cells after 72 hrs by MTS assay. Format: functional, cell-based. To be noted: HT-29, 72 h.

Consider `CCCCCCC[C@@H]1CC(=O)N[C@@H]([C@@H](C)CC)C(=O)N[C@H]([C@@H](O)C(C)C)C(=O)N[C@@H](CCO)C(=O)N[C@H]([C@@H](O)C(C)C)C(=O)N[C@@H](CCC(N)=O)C(=O)N(C)[C@@H]([C@@H](C)CC)C(=O)N[C@H](CO)C(=O)N[C@@H]([C@@H](C)O)C(=O)N2CCC[C@H]2C(=O)N[C@H](Cc2ccc(O)cc2)C(=O)N[C@@H]([C@@H](C)O)C(=O)N1`, for which the IC50 – broadly, the concentration that gives 50% inhibition – worked out at 0.8 µM in assay [1] and 1.5 µM in assay [2].
